What was measured:
[1] = molecular target: T1, carboxyltransferase component of E. coli acetyl-CoA carboxylase (Escherichia coli, UniProt P0A9Q5+P0ABD5); assay: Carboxyltransferase inhibition, assayed in the reverse direction with coupled spectrophotometric detection; format: biochemical
T1 construct: made in house; host or cells: E. coli overexpression strain (Blanchard et al. 1998; G. Waldrop, LSU)
T1 sequence (P0ABD5 1-319): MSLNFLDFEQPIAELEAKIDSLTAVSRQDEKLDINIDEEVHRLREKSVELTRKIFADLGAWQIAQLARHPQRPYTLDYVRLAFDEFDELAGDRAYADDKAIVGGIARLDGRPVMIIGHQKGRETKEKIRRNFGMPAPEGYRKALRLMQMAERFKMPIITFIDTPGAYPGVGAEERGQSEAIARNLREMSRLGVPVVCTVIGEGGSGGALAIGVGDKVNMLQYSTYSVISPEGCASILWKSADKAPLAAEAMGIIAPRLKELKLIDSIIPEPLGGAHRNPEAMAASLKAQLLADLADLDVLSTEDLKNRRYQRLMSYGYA
T1 sequence (P0A9Q5 1-304): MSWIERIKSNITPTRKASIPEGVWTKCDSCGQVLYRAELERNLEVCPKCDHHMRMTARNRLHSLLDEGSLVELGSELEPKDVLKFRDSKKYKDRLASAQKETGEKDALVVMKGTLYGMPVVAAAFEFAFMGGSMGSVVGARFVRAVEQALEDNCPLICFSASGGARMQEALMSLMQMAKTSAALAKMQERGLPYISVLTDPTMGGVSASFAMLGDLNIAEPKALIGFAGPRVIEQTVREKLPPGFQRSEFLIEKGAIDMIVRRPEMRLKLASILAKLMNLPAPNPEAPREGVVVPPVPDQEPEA
Experimental: Carboxyltransferase was purified from a strain of E. coli that overexpresses the genes encoding the α and β subunits of the enzyme. C. Blanchard et al., J. Biol. Chem. 273, 19140-19145 (1998). (E. coli strain available on request from G. Waldrop, Department of Biological Sciences, Louisiana State University, Baton Rouge, La.) The published procedure was modified slightly. Bacteria were grown to saturation at 37° C. in 1 L of LB medium in 2 L flasks, and were then induced with 1 g of lactose and incubated without shaking at 25° C. for 24 h. The concentration of carboxyltransferase was determined by the method of M. Bradford, Anal. Biochem. 72, 248-254 (1976) using bovine serum albumin as a standard.
(§1) Carboxyltransferase was assayed in the reverse direction: the production of acetyl-CoA was detected by using the coupling enzymes malate dehydrogenase and citrate synthase, and the reduction of NAD^+ was measured spectrophotometrically by the method of C. Blanchard et al., J. Biol. Chem. 273, 19140-19145 (1998); and R. Guchhait et al., Methods Enzymol. 35, 32-37 (1975).
In Equations [1] and [2], v is the initial velocity, Vm is the maximal velocity, A is the substrate concentration, I is the concentration of inhibitor, Km is the Michaelis constant, Kis is the slope inhibition constant, and Kii is the intercept inhibition constant.
v=VmA/(Km(1+I/Kis)+A(1+I/Kii))
The activity of carboxyltransferase was measured in the reverse direction using malonyl-CoA and biocytin as substrates.

citrate synthase = assay: Coupling enzyme control (NAD+ reduction after addition of acetyl-CoA); format: biochemical; conditions: 0.6 mM compound
Experimental: as §1
(§2) The bisubstrate analog had previously been observed not to inhibit the activity of either of these coupling enzymes at 0.6 mM, a value three times higher than the highest concentration used in the inhibition studies.

malate dehydrogenase = assay: as above; format: biochemical; conditions: 0.6 mM compound
Experimental: as §1, §2

[2] = molecular target: T2, murine acetyl-CoA carboxylase (Mus musculus, UniProt Q5SWU9); assay: Acetyl-CoA carboxylase activity in cell-free extracts of pre-adipocytes, compound added to extract; format: biochemical
T2 construct: endogenous in cells; host or cells: murine 3T3-L1 pre-adipocytes (cytosolic extract)
Experimental: (§3) The above procedure was modified to prepare extracts for enzymatic analysis. The non-denaturing buffer in that case contained 150 mM KCl instead of NaCl, and there was no Triton X-100, Nonidet P-40, nor any protease or phosphatase inhibitors in the buffer. The cell monolayers were scraped into this buffer, and were homogenized with 16 strokes in a Dounce homogenizer. The homogenates were centrifuged at 10,000 g for 5 minutes, and the supernatants were saved as cytosolic extract, quantitated, and used to assay acetyl-CoA carboxylase activity.
The activity of acetyl-CoA carboxylase from 3T3-L1 cell lysates was determined in a fixed-time assay using HPLC. HPLC is not normally used in this field, because cell lysates are mixtures of such a large number of different components; it would be more conventional to use an assay employing radioactivity. […] This assay will be useful in monitoring the progress and reaction of patients who are administered treatment in accordance with this invention.
(§4) Assays were performed by measuring the loss of acetyl-CoA, or the production of malonyl-CoA, at 5 minute intervals for 20 minutes, using reverse-phase HPLC. […] Rates were calculated by linear regression analysis of malonyl-CoA concentration as a function of time. […] Following termination of the reaction, the samples were centrifuged (3 min, 10,000 g) and then analyzed by HPLC. […]

3T3-L1 pre-adipocytes = assay: 3T3-L1 adipocyte differentiation (Western blot of transcription factors, Oil Red O staining); format: cell-based, murine
Experimental: Murine 3T3-L1 pre-adipocytes (a kind gift from Howard Green, Harvard University, Cambridge, Mass.) were plated and grown to 2 days post-confluence in DMEM supplemented with 10% bovine serum. Medium was changed every 48 hours. Cells were induced to differentiate into adipocytes by changing the medium to DMEM supplemented with 10% fetal bovine serum (FBS), 0.5 mM 3-isobutyl-1-methylxanthine (MIX) (Sigma), 1 μM dexamethasone (DEX) (Sigma), and 1.7 μM insulin (Sigma). After 48 hours this medium was replaced with DMEM supplemented with 10% FBS, and the cells were maintained in this medium until they were used in experiments. Compound 2 was dissolved in DMSO and added to the cell culture media at a 1:1000 dilution for experiments. Vehicle additions were also conducted for each experiment as controls.
Monolayers of 3T3-L1 adipocytes were rinsed with phosphate-buffered saline (PBS) and then harvested in a non-denaturing buffer containing 150 mM NaCl, 10 mM Tris, pH 7.4, 1 mM EGTA, 1 mM EDTA, 1% Triton-X 100, 0.5% Nonidet P-40 detergent (Sigma), 1 μM PMSF (phenylmethylsulfonyl fluoride protease inhibitor, Sigma), 1 μM pepstatin (Sigma), 50 trypsin inhibitory milliunits of aprotinin (Sigma), 10 μM leupeptin (Sigma), and 2 mM sodium vanadate (Fisher Chemical, Fair Lawn, […]) for Western blot analysis. Samples were extracted for 30 minutes on ice and centrifuged at 10,000 g at 4° C. for 15 minutes. Supernatants containing whole cell extracts were analyzed for protein content using a BCA kit (Pierce) according to the manufacturer's instructions.
Proteins were separated in 5%, 7.5%, or 12% polyacrylamide (National Diagnostics, […].) gel containing sodium dodecyl sulfate (SDS) following the procedure of U. Laemmli, Nature 227, 680-685 (1970). Proteins were then transferred to nitrocellulose (BioRad, Atlanta, Ga.) in 25 mM Tris, 192 mM glycine, and 20% methanol. Following transfer, the membrane was blocked in 4% milk (non-fat, dried milk reconstituted in water at a 4% concentration (w/v)) for 1 hour at room temperature. Results were visualized with horseradish peroxidase (HRP)-conjugated secondary antibodies (Sigma) and enhanced chemiluminescence (Pierce).
The murine 3T3-L1 pre-adipocyte cell line was used to examine the effects of Compound 2 on adipocyte differentiation. The 3T3-L1 cell line can be induced to differentiate in culture from fibroblasts, or pre-adipocytes, into cells with the morphological and biochemical properties of adipocytes. […] For example, these cells accumulate lipids, respond to insulin, and secrete leptin. The 3T3-L1 pre-adipocytes were first grown to a confluent monolayer. At two days post-confluence, the cells were exposed to a “differentiation cocktail” (FBS, MIX, DEX, and insulin) for 48 hours, and the cells were then maintained in 10% FBS in DMEM in the presence or absence of various doses of Compound 2. A vehicle addition of DMSO was also performed as a control. Compound 2 or DMSO was added in a 1-to-1000 dilution to the cell culture medium every 24 hours. One week after treatment with the differentiation cocktail, whole cell extracts were prepared, and cells were stained with Oil Red O to assess lipid accumulation.
The differentiation of pre-adipocytes into adipocytes has been attributed, in part, to increased expression of several transcription factors, including PPARγ and STATs 1, 5A, and 5B. To observe the differentiation of pre-adipocytes into adipocytes, the expression of these transcription factors was examined by Western blot analysis (data not shown). Adipogenesis was also assessed by examining lipid accumulation, as judged by Oil Red O staining (data not shown).
Whole cell extracts were prepared one week after the induction of differentiation in the presence of 0, 1, 2, 4, 8, or 17 μM doses of Compound 2, or treatment with DMSO (vehicle), with treatments in each case repeated every 24 hours. […]

acetyl-CoA carboxylase = molecular target: T3, acetyl-CoA carboxylase (Mus musculus, UniProt Q5SWU9); assay: Acetyl-CoA carboxylase activity in lysates of treated pre-adipocytes (HPLC fixed-time assay); format: cell-based, murine; conditions: pre-adipocytes treated with 10 μM for four hours; DMSO control 1.40 nmol/min-mg
T3 construct: endogenous in cells; host or cells: murine 3T3-L1 pre-adipocytes (cytosolic extract)
Experimental: as §3
The activity of acetyl-CoA carboxylase from 3T3-L1 cell lysates was determined in a fixed-time assay using HPLC. HPLC is not normally used in this field, because cell lysates are mixtures of such a large number of different components; it would be more conventional to use an assay employing radioactivity. […]
as §4
We also examined whether there was a concomitant decrease in the activity of acetyl-CoA carboxylase. […] Acetyl-CoA carboxylase activity was measured by analytical reverse phase HPLC. […]

[3] = test system: breast cancer cell line MCF7; assay: MCF7 cellular proliferation (counting viable cells as a function of time); format: cell-based; conditions: preliminary data; number of viable cells as a function of time
From the text: Cancer cells also typically have high levels of fatty acid synthesis. Various inhibitors of fatty acid synthesis are currently in clinical trials for the treatment of breast cancers. Since acetyl-CoA carboxylase—not fatty acid synthase—is the rate-limiting enzyme in fat synthesis, the inhibition of acetyl-CoA carboxylase with the bisubstrate analog should be at least as effective in treating cancers as fatty acid synthesis inhibitors, if not more so.

## CC(C)(COP(=O)(O)OP(=O)(O)OCC1OC(n2cnc3c(N)ncnc32)C(O)C1OP(=O)(O)O)C(O)C(=O)NCCC(=O)NCCSCC(=O)N1C(=O)NC2C(CCCCC(=O)OCc3ccccc3)SCC21 (stereo not drawn) [Compound 1]
[1]
  Ki: 23 ± 2 µM
  binding energy of the inhibitor relative to the sum of binding energies of the two substrates (times less): about 1.3
[1]; Km of malonyl-CoA and biocytin used as dissociation constants
  factor by which the product of the substrate dissociation constants exceeds the inhibition constant: about 35
[1]; biocytin held constant at 6.0 mM
  inhibition pattern with malonyl-CoA as the variable substrate: competitive inhibition
[1]; malonyl-CoA held constant at 0.1 mM
  inhibition pattern with biocytin as the variable substrate: noncompetitive inhibition
Citrate synthase
  inhibition of coupling enzyme citrate synthase: No decrease in activity
Malate dehydrogenase
  inhibition of coupling enzyme malate dehydrogenase: No decrease in activity
[2]
  effect on acetyl-CoA carboxylase activity in cell-free extracts: inhibited murine acetyl-CoA carboxylase activity

## N[C@@H](CCCCNC(=O)CCCC[C@@H]1SC[C@@H]2NC(=O)N[C@@H]21)C(=O)O [biocytin]
[1]; substrate of carboxyltransferase, reverse direction
  Km: 8 mM

## phenylmethyl 5-(6,8-diaza-6-(2-X-acetyl)-7-oxo-3-thiabicyclo[3.3.0]oct-2-yl)pentanoate [Compound 2]
3T3-L1 pre-adipocytes; 0, 1, 2, 4, 8 or 17 μM, repeated every 24 hours, one week
  adipocyte differentiation of 3T3-L1 cells: inhibited adipocyte differentiation of 3T3-L1 cells in a dose-dependent manner
3T3-L1 pre-adipocytes; 17 μM or 8 μM
  induction of PPARγ expression (Western blotting): blocked the induction of PPARγ expression
  lipid accumulation (Oil Red O staining): blocked lipid accumulation
3T3-L1 pre-adipocytes; Western blot
  levels of STAT3: unaffected
3T3-L1 pre-adipocytes; Western blot, during induced differentiation
  expression of STATs 1 and 5A: inhibited in a dose-dependent manner
3T3-L1 pre-adipocytes; compound not re-added at 24 hour intervals after initial treatment
  reversibility of inhibition of differentiation: reversible
acetyl-CoA carboxylase
  activity of acetyl-CoA carboxylase from treated cells: 0.30 nmol malonyl-CoA/min-mg
[2]
  effect on acetyl-CoA carboxylase activity in cell-free extracts: had no effect
[3]
  cellular proliferation of MCF7: inhibited cellular proliferation in that cell line in a dose-dependent manner
